pEC50: −log10 of the molar value.
Test system: N548 mutant cells
Assay: in vitro
Details: for selectivity profile of cell death rescue in panel of htt expressing cell lines: N63, N548, FL htt cell lines, in words; for maximal fold induction / EC50: Rattus norvegicus; for maximal fold induction: 72 h, read-out: N548 Mut: Max, maximum rescue expressed as fold over DMSO treated N548 mutant cells; for EC50 / pEC50: read-out: EC50 based on activity in N548 mutant cells; for N548 Mut: Max, maximum rescue expressed as fold over DMSO treated N548 mutant cells: 0.5% IFS, 39° C., 3 d
Protocol: Embryonic rat striatal neurons were conditionally immortalized by stably transfecting a temperature-sensitive SV40 large T-antigen (T-ag) to generate the ST14A cell line. ST14A cells proliferate at the permissive temperature (33° C.), but stop dividing at 39° C., as a result of T-ag degradation. […] As htt protein context modulates polyQ toxicity, testing these different length htt proteins could provide insight into the basis for context dependence.
ST14A Assay System: Calcein acetoxylmethyl ester (AM) (Molecular Probes, Eugene, Oreg.) is a non-fluorescent, membrane-permeable compound that is cleaved by intracellular esterases, which subsequently forms the anionic, fluorescent compound, calcein, that cannot permeate the cell membrane. […] A fluorescence viability assay, that is based on conversion of a non-fluorescent substrate (calcein AM) to a fluorescent product by nonspecific esterases in live cells, was employed to monitor cell death in wild type (wt) ST14A-Htt and mut ST14A-Htt cell lines. Cell death is indicated by a decrease in fluorescence. […] 3 μl of each compound was transferred from daughter plates to triplicate assay plates for a final assay concentration of 4 μg/ml in 0.1% DMSO (10 μM for NINDS compounds). Cells were incubated at 33° C. for 3 h to enhance attachment and then shifted to 39° C. (with 5% CO2). After 3 days (d), cells were washed 10 times with phosphate buffered saline (PBS) leaving 20 μl residual PBS per well, and 20 μl of 2 μg/ml calcein AM (Molecular probes) in PBS was added per well. […] The fluorescence intensity in each well was normalized to the median of each plate. The median normalized fluorescence of each triplicate assay wells was determined. A well with more than 50% increase in intensity above the median signal intensity was considered a “hit.”
Assay Development: An assay was developed for detecting mutant htt-induced cell death in ST14A cells in a 384-well plate format. A calcein AM-based method was used to detect cell viability, and optimized the cell number and time course for this method. […] A cell number titration was performed to determine the cell density at which calcein fluorescence was not saturated and the coefficient of variation (CV) was low (FIG. 14A-B). A low CV is critical for a high-throughput assay as it decreases noise and enhances sensitivity. […] Next, the kinetics of the fluorescence signal were determined.
Next, the serum concentrations that induce cell death in these cells were determined. Cells were seeded in decreasing serum (IFS) concentrations (5 to 0%), and cell viability was assayed after 3 d using the calcein AM assay (FIG. 14E).
A Z′ value of greater than 0 is required for a usable assay, with a maximum value of 1.0 for an ideal assay. For the assay, calcein fluorescence was used on the day of seeding to represent 100% rescue. The difference in calcein fluorescence signal on the day of seeding and after different number of days under serum deprivation was determined and used to calculate the Z′ factor. […] About 47,000 compounds were assayed in a 384-well plate format in triplicate to enhance the reliability of the primary screen.

Row | EC50 [µg/mL] | Molecule | selectivity profile of cell death rescue in panel of htt expressing cell lines | maximal fold induction | N548 Mut: Max, maximum rescue expressed as fold over DMSO treated N548 mutant cells [fold] | pEC50
1 | 3 | CC1(C)C(C=C(Cl)Cl)C1C(=O)C1=C(O)CCCC1=O (stereo not drawn) [revertin-6] | N548 mutant selective | 8 |  | 
2 | 4 | CCCCCCN(C(=O)CCCC)C(C)c1nc2ccccc2c(=O)n1-c1ccccc1OC (stereo not drawn) [revertin-10] | N63 and N548 mutant selective | 1.5 |  | 
3 | 5 | O=[N+]([O-])c1cc(CN2CCN(CCO)CC2)ccc1Cl [revertin-13] |  | 1.5 |  | 
4 |  | CCOC(=O)c1cccc(NS(O)(O)c2ccc(OC)cc2)c1 [revertin-14] | N548 and FL-mutant selective |  |  | 
5 | 1 | O=c1[nH]c2c(c(=O)[nH]1)C(c1cccc([N+](=O)[O-])c1)C=C(c1ccccc1)O2 (stereo not drawn) [revertin-15] |  | 3 |  | 
6 | 1 | CCCN1C(=O)C(=O)c2cc(C)ccc21 [revertin-16] |  | 2 |  | 
7 | 4 | CC(C)CC(NC(=O)OCc1ccccc1)C(=O)Oc1ccc2c(=O)c(-c3ccc([N+](=O)O)cc3)coc2c1 (stereo not drawn) [revertin-17] |  | 1.5 |  | 
8 | 4 | COc1ccc(C(CCN(CC2CCOC(C)(C)C2)C(C)=O)c2ccccc2)cc1 (stereo not drawn) [revertin-18] |  | 1.5 |  | 
9 | 4 | COc1cc2c3c(c1)C(C)CC(C)(C)N3C(=O)C2=O (stereo not drawn) [revertin-19] |  | 2 |  | 
10 | 8 | COc1ccc(CN(CCC2(c3ccccc3)CCOC(C)(C)C2)C(=O)c2ccco2)cc1OC (stereo not drawn) [revertin-20] |  | 2 |  | 
11 | 4 | Cc1ccc(-c2nc(NS(=O)(=O)c3ccc(Cl)cc3)sc2C)cc1 [revertin-21] |  | 3 |  | 
12 | 5 | CC12CC3CC(C)(C1)CC(NC=O)(C3)C2 [revertin-26] |  | 1.5 |  | 
13 | 2 | CC1=NN(C(N)=S)C(=O)C1NNc1ccccc1C(F)(F)F (stereo not drawn) [revertin-29] |  | 3 |  | 
14 | 2 | CC(C)C1=CCC2C(=C1)CCC1C(C(=O)O)CCCC21C (stereo not drawn) [revertin-30] |  | 4 |  | 
15 | 2 | O=C(NNC(C(=O)Cc1cccs1)C(F)(F)F)c1cccc(Br)c1 (stereo not drawn) [revertin-31] |  | 4 |  | 
16 |  | Antimycin A [reference compound] |  |  | 3 | 5.30
17 |  | Nonactin [reference compound] |  |  | 2.5 | 6.22
18 |  | Rotenone [reference compound] |  |  | 2.5 | 5.30

Row | Molecule | EC50 [µg/mL] | selectivity profile of cell death rescue in panel of htt expressing cell lines | maximal fold induction | N548 Mut: Max, maximum rescue expressed as fold over DMSO treated N548 mutant cells [fold] | pEC50
19 | O=c1cccc2n1CC1CC2CN(C2=NC=NC3c4cc(Cl)ccc4NC23)C1 (stereo not drawn) [revertin-12] | 3 |  | 1.5 |  | 
20 | CC(=O)N(c1ccc(Br)cc1)C1C(=O)c2ccccc2C(=O)C1N(C)C (stereo not drawn) [revertin-24] | 2 |  | 25 |  | 
21 | CCC1CN2CCc3cc(OC)c(OC)cc3C2CC1CC1c2cc(OC)c(OC)cc2CCN1C(=O)c1ccco1 (stereo not drawn) [revertin-25] | 3 |  | 4 |  | 
22 | Oc1ccc2c(c1)CC1NCCc3cc(O)c(O)c-2c31 (stereo not drawn) [revertin-27] | 4 |  | 3 |  | 
